Results taken from US20230220387A1, “D-SERINE TRANSPORT MODIFIER AND SCREENING METHOD THEREOF, AND SCREENING METHOD OF D-SERINE TRANSPORTER PROTEIN” (Kagami Inc., priority 2019, published 2023).

What was measured:
HEK293 cells = test: [3H]D-serine transport in HEK293 cells; assay type: cell-based; details: endogenous ASCT2
Procedure: (§1) The cell lines HEK293 and Flp-In TREx 293 were cultured at 37° C. in a 5% CO2 environment, using Dulbecco's Modified Eagle Medium (DMEM) containing 10% fetal bovine serum (FBS), 100 units/ml Penicillin G and 100 μg/ml streptomycin (P/S). The cells were seeded in a Poly-D-lysine coated 24-well plate at 6×10^4 cells/well. After culturing for 3 days in DMEM Medium containing 10% FBS and P/S, the cell were used for transport activity measurement. Before transport activity measurement, the cells were washed with transport activity measurement buffer (PBS+1 g/L D-glucose) prewarmed to 37° C. and incubated for 10 minutes at 37° C. in 500 μL of buffer. The transport activity measurement was initiated by addition of D-[^3H]serine-containing transport activity buffer at the indicated concentration. The reaction product produced after addition was incubated at 37° C. for the indicated time. The reaction was suspended by removing the D-[^3H]serine-containing transport activity buffer, and the product was washed 3 times with thoroughly cooled transport activity buffer. The cells were dissolved with 500 μL of 0.1 N NaOH and incubated for at least one hour. Protein concentration of the cell lysate was measured by BCA protein assay. The lysate was mixed with 1 mL of Emulsifier Safe (PerkinElmer, MA, USA) and the radioactivity of the lysate was measured with a β-scintillation counter (LSC-8000, Hitachi). In transport activity measurement for Na^+, HBSS (+Na^+: 125 mM NaCl, −Na^+: choline chloride, 4.8 mM KCl, 1.2 mM MgSO4, 1.2 mM KH2PO4, 1.3 mM CaCl2), 5.6 mM D-glucose and 25 mM HEPES was used instead of PBS. For the inhibition experiment, a non-radioactive labeled compound was included as the uptake substrate as shown in the drawing.

ASCT2 = molecular target: T1, ASCT2 (Homo sapiens, UniProt Q15758); test: [3H]D-serine transport in HEK293 cells transfected with ASCT2; assay type: cell-based
T1 construct: expressed in transfected cells; host or cells: HEK293 cells
T1 sequence (Q15758 1-541): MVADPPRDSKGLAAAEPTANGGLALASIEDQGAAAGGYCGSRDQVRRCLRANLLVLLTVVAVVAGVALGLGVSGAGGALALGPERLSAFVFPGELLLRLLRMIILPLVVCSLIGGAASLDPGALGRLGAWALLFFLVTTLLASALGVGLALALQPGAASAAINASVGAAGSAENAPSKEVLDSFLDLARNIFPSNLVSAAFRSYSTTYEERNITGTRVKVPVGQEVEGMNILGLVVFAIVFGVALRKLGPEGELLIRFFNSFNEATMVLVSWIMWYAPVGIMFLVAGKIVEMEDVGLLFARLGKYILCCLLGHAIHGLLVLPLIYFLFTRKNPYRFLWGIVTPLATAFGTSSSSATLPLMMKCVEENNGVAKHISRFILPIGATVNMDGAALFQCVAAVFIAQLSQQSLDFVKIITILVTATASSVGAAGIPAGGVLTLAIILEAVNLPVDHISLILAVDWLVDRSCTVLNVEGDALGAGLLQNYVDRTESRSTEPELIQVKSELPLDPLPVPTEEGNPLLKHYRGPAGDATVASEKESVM
Procedure: The cell lines HEK293 and Flp-In TREx 293 were cultured at 37° C. in a 5% CO2 environment, using Dulbecco's Modified Eagle Medium (DMEM) containing 10% fetal bovine serum (FBS), 100 units/ml Penicillin G and 100 μg/ml streptomycin (P/S). The cells were seeded in a Poly-D-lysine coated 24-well plate at 6×10^4 cells/well. After culturing for 3 days in DMEM Medium containing 10% FBS and P/S, the cell were used for transport activity measurement. Before transport activity measurement, the cells were washed with transport activity measurement buffer (PBS+1 g/L D-glucose) prewarmed to 37° C. and incubated for 10 minutes at 37° C. in 500 μL of buffer. The transport activity measurement was initiated by addition of D-[^3H]serine-containing transport activity buffer at the indicated concentration. The reaction product produced after addition was incubated at 37° C. for the indicated time. The reaction was suspended by removing the D-[^3H]serine-containing transport activity buffer, and the product was washed 3 times with thoroughly cooled transport activity buffer. […] Protein concentration of the cell lysate was measured by BCA protein assay. The lysate was mixed with 1 mL of Emulsifier Safe (PerkinElmer, MA, USA) and the radioactivity of the lysate was measured with a β-scintillation counter (LSC-8000, Hitachi). […]

[1] = tested on: Flp-In TREx 293 cell line; test: D-[3H]serine uptake in Flp-In TREx 293 cell line in the presence of inhibitors; assay type: cell-based; details: 10 minutes
Procedure: as §1

[2] = tested on: mouse brush border membrane vesicles (BBMV); test: D-[3H]serine transport activity measurement with mouse BBMVs; assay type: biochemical
Procedure: Total mouse kidneys were extracted by perfusion using PBS buffer at pH 7.4, and then immediately frozen with liquid nitrogen and stored at −80° C. until use. The frozen kidneys were resuspended in buffer containing 20 mM Tris-HCl at pH 7.6, 250 mM mannitol, 1 mM EDTA and Complete EDTA-free protease inhibitor cocktail (Roche, Switzerland), and crushed using a PHYSCOTRON (Microtec Co., Ltd.). The sample was then homogenized using a Potter-Elvehjem homogenizer. After centrifugation at 1,000×g for 5 minutes at 4° C., the supernatant was centrifuged at 3,000×g for 5 minutes at 4° C. After centrifugation, the supernatant was mixed with 1 M MgCl2 at a final concentration of 11 mM MgCl2, and incubated on ice for 20 minutes. This was followed by centrifugation at 3,000×g for 15 minutes at 4° C., and then ultracentrifugation of the supernatant containing crude membrane vesicles at 438,000×g for 30 minutes at 4° C. The pellet remaining after ultracentrifugation (BBMVs) was suspended in buffer containing 20 mM Tris-HCl at pH 7.6 and 250 mM mannitol. The BBMVs were quantified using a BCA protein quantitation kit (Thermo Fisher Scientific). The BBMVs were cryopreserved at −80° C. until use. Before transport activity measurement, the cryopreserved BBMVs were thawed to allow introduction of potassium into the BBMVs, after which they were ultracentrifuged at 438,000×g for 30 minutes at 4° C., and the pellet was then suspended in buffer containing 10 mM Tris-HCl at pH 7.6, 100 mM KCl and 100 mM mannitol to a 5 mg/mL protein concentration, and the BBMV suspension was incubated on ice overnight. Before measurement of the transport activity, valinomycin was added to the BBMV sample to a final concentration of 5 μM and the mixture was incubated at room temperature for 30 minutes. […] The used filter was melted with Clear-sol I (Nacalai Tesque, Inc.) and the radioactivity on the filter was measured using a β-scintillation counter (LSC-8000, Hitachi).

hSMCT1 = molecular target: T2, hSMCT1 (Homo sapiens, UniProt Q8N695); test: D-[3H]serine uptake in FlpIn293TR-hSLC5A8-3×FLAG stable cell line; assay type: cell-based; details: 20 μM D-[3H]serine, 10 minutes
T2 construct: A final pcDNA5-hSLC5A8_NM145913-3×FLAG positive clone was obtained and named “pcDNA5-hSLC5A8-3×FLAG”; expressed in transfected cells
T2 sequence (Q8N695 1-610): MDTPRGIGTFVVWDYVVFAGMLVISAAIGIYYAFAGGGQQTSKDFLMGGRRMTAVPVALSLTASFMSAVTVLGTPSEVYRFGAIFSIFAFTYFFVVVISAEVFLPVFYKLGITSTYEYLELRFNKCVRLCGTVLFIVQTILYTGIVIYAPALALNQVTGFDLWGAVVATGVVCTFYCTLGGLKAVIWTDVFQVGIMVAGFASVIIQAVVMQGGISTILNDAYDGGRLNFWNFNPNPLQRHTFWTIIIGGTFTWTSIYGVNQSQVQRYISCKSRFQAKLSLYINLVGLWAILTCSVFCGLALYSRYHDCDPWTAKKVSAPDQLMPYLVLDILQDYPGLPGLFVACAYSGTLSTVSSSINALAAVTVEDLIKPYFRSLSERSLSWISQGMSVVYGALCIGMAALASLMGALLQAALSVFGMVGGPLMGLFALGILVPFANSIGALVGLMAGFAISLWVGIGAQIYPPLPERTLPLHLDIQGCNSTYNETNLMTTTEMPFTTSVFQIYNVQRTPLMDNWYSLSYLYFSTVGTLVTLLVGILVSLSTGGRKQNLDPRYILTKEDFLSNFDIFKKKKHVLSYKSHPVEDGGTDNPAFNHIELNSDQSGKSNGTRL
Procedure: (§2) The stable cell line FlpIn293 TR was seeded in a poly-D-lysine-coated 24-well plate at 5×10^4 cells/well (Mock) or 6×10^4 cells/well (hSLC5A8 and hSLC5A12 cells), and after 24 hours, 1 mg/L doxycycline hyclate was added to induce recombinant gene expression. The cells were continuously cultured for 2 days and transport activity measurement was conducted at 80% to 90% confluence. In an ASCT2 knockdown experiment, the seeded cells were transfected after 12 hours with ASCT2 siRNA at 10 pmol/well, using Lipofectamine 3000. Before transport activity measurement, the cells were washed 3 times with transport activity buffer (PBS+1 g/L D-glucose) warmed to 37° C. and incubated for 10 minutes at 37° C. in 500 μL of buffer. The transport activity measurement was initiated by addition of D-[^3H]serine-containing transport activity buffer at the indicated concentration. The reaction product produced after addition was incubated at 37° C. for the indicated time. The reaction was suspended by removing the D-[^3H] serine-containing transport activity buffer, and the product was washed 3 times with thoroughly cooled transport activity buffer. […] Protein concentration of the cell lysate was measured by BCA protein assay. The lysate was mixed with 1 mL of Emulsifier Safe (PerkinElmer, MA, USA) and the radioactivity of the lysate was measured with a β-scintillation counter (LSC-8000, Hitachi). […]

hSMCT2 = molecular target: T3, hSMCT2 (Homo sapiens, UniProt Q1EHB4); test: D-[3H]serine uptake in FlpIn293TR-hSLC5A12-3×FLAG stable cell line; assay type: cell-based; details: 20 μM D-[3H]serine, 10 minutes
T3 construct: expressed in transfected cells
T3 sequence (Q1EHB4 1-618): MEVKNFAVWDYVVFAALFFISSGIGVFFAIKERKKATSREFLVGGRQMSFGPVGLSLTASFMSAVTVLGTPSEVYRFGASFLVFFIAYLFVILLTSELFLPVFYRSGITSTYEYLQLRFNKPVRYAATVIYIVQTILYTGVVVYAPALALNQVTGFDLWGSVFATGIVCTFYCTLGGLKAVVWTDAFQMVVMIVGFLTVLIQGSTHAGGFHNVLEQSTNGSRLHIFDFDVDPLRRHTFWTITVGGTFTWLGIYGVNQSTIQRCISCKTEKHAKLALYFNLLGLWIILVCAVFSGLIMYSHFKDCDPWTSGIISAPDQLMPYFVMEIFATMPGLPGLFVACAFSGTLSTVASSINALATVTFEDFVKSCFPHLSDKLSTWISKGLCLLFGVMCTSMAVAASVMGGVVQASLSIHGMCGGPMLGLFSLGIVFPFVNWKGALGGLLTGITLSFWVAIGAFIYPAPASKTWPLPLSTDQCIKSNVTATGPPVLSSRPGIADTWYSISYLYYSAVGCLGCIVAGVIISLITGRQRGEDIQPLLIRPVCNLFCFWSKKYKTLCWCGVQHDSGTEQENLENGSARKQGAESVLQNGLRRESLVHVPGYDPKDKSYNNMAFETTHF
Procedure: as §2

[3] = tested on: FlpIn293TR-hSLC5A12-3×FLAG (SMCT2)-stable cell line; test: Toxicity test (XTT) in SMCT2-stable cell line; assay type: cell-based; details: 500 μM ibuprofen added with D-serine to SMCT2 cells
Procedure: (§3) A toxicity test for stable cells was carried out using an FlpIn293TR-stable cell line. The cells were seeded in a poly-D-lysine-coated 96-well plate at 6.5×10^3 cells/well (Mock) and 8×10^3 cells/well (hSLC5A8 and hSLC5A12 cells), while in antibiotic-free DMEM+dialyzed FBS medium. After 24 hours, they were treated with L- or D-serine at different concentrations and 1 mg/L of doxycycline hyclate was added to induce recombination gene expression. For the ASCT2 knockdown experiment, the seeded cells were transfected after 12 hours with ASCT2 siRNA at 2 pmol/well, using Lipofectamine 3000. The effect of ibuprofen was analyzed by simultaneous addition with D-serine treatment. The cells were cultured for 2 days to 80% confluence. The proliferated cell count was determined by XTT measurement in the same manner as described above.

[4] = tested on: FlpIn293TR-hSLC5A8-3×FLAG (SMCT1)-stable cell line; test: Toxicity test (XTT) in SMCT1-stable cell line; assay type: cell-based; details: 500 μM ibuprofen added with D-serine to SMCT1 cells
Procedure: as §3

NCCCC(=O)O [GABA, γ-aminobutyric acid]
[3H]D-serine transport (HEK293 cells): inhibit | [3H]D-serine transport (ASCT2): inhibited

N[C@@H](CCC(=O)Nc1ccc([N+](=O)[O-])cc1)C(=O)O [GPNA, L-γ-glutamyl-p-nitroanilide]
Uptake of D-[3H]serine [1]: inhibited

CSCC[C@H](N)C(=O)O [L-methionine]
Uptake of D-[3H]serine [1]: inhibited | [3H]D-serine transport (HEK293 cells): inhibited

C[C@@H](O)[C@H](N)C(=O)O [L-threonine]
uptake activity inhibited ([2]; 2 mM L-threonine, 10 μM D-[3H]serine, measuring time 30 seconds): About 70% | Uptake of D-[3H]serine [1]: inhibited | [3H]D-serine transport (HEK293 cells): inhibited

CC(=O)Oc1ccccc1C(=O)O [acetylsalicylic acid]
D-[3H]serine transport (hSMCT1): inhibited | D-[3H]serine transport (hSMCT2): inhibited

CC(C)Cc1ccc(C(C)C(=O)O)cc1 (centres unmarked) [ibuprofen]
D-[3H]serine transport activity ([2]; 1 and 3 mM ibuprofen, 50 μM D-[3H]serine, 1 minute): strongly inhibited | D-[3H]serine transport (hSMCT1): inhibited | D-[3H]serine transport (hSMCT2): inhibited | effect of ibuprofen on D-serine effect on cell proliferation [3]: reduced the D-serine effect to the same level as the Mock cells | effect of ibuprofen on D-serine effect on cell proliferation [4]: reduced the D-serine effect to the same level as the Mock cells

O=C(O)c1cccnc1 [nicotinic acid]
Na+-dependent uptake inhibited ([2]; 1 mM nicotinic acid, 10 μM D-[3H]serine, measuring time 30 seconds): approximately 30%

S-benzyl-L-cystine [Benzyl-Cys]
Uptake of D-[3H]serine [1]: inhibited
